Drawing on ChEMBL document CHEMBL5653615 (J Biol Chem, 2013), this text covers inhibition for two compounds.

Experiment [1] addresses SRSF protein kinase 1 (Homo sapiens) (UniProt Q96SB4). As to the kind of experiment: Inhibition of human SRPK1 at 18.6 nM by HotSpot assay relative to control.
Experiment [2] concerns the target Casein kinase II subunit alpha' (Homo sapiens) (UniProt P19784). As to the kind of experiment: Inhibition of human CK2a2 at 18.6 nM by HotSpot assay relative to control.
Experiment [3] concerns the target Platelet-derived growth factor receptor alpha (Homo sapiens) (UniProt P16234). As to the kind of experiment: Inhibition of human PDGFRa at 18.6 nM by HotSpot assay relative to control.
The target in experiment [4] is T1, Testis-specific serine/threonine-protein kinase 2 (Homo sapiens) (UniProt Q96PF2).
T1 sequence (whole entry): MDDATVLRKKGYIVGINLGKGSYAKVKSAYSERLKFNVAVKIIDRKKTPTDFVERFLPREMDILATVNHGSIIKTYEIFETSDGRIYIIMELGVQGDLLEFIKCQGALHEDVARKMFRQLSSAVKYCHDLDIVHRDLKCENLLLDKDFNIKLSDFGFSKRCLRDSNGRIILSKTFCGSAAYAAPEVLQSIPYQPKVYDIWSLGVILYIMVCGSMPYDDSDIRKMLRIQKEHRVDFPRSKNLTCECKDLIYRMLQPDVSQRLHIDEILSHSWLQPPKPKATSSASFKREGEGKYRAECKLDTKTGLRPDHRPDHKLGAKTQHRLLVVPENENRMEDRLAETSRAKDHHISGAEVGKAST
Kind of experiment: Inhibition of human TSSK2 at 18.6 nM by HotSpot assay relative to control.

The target of experiment [5] is Tyrosine-protein kinase Lck (Homo sapiens) (UniProt P06239). Kind of experiment: Inhibition of human LCK at 18.6 nM by HotSpot assay relative to control.
Sequence of Tyrosine-protein kinase Lck (Homo sapiens) (P06239 2-509 limits assumed): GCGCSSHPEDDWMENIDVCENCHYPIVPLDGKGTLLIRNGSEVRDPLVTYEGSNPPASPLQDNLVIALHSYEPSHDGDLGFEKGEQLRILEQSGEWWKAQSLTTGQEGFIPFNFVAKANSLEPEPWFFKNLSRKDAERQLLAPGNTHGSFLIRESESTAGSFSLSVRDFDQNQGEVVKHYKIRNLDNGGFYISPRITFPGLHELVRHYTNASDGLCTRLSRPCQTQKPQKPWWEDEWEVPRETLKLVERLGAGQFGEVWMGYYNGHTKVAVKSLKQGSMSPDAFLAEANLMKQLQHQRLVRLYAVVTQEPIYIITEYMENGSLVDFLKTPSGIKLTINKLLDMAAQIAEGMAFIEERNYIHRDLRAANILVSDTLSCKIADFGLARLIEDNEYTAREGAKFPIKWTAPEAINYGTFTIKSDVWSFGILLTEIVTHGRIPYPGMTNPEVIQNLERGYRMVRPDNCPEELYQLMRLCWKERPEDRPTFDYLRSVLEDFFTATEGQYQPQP
In experiment [6] the target is Serine/threonine-protein kinase 16 (Homo sapiens) (UniProt O75716). Kind of experiment: Inhibition of human STK16 at 18.6 nM by HotSpot assay relative to control.
Sequence of Serine/threonine-protein kinase 16 (Homo sapiens) (O75716 whole entry): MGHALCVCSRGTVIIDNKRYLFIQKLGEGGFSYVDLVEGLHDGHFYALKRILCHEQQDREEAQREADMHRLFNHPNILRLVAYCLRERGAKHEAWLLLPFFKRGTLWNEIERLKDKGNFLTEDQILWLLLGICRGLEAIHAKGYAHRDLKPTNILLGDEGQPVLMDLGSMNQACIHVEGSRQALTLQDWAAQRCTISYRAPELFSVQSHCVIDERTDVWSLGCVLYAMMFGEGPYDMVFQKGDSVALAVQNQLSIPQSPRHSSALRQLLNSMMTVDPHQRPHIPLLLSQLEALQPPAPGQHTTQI
For experiment [7], the target named is T2, Serine/threonine-protein kinase ULK2 (Homo sapiens) (UniProt Q8IYT8).
T2 sequence (whole entry): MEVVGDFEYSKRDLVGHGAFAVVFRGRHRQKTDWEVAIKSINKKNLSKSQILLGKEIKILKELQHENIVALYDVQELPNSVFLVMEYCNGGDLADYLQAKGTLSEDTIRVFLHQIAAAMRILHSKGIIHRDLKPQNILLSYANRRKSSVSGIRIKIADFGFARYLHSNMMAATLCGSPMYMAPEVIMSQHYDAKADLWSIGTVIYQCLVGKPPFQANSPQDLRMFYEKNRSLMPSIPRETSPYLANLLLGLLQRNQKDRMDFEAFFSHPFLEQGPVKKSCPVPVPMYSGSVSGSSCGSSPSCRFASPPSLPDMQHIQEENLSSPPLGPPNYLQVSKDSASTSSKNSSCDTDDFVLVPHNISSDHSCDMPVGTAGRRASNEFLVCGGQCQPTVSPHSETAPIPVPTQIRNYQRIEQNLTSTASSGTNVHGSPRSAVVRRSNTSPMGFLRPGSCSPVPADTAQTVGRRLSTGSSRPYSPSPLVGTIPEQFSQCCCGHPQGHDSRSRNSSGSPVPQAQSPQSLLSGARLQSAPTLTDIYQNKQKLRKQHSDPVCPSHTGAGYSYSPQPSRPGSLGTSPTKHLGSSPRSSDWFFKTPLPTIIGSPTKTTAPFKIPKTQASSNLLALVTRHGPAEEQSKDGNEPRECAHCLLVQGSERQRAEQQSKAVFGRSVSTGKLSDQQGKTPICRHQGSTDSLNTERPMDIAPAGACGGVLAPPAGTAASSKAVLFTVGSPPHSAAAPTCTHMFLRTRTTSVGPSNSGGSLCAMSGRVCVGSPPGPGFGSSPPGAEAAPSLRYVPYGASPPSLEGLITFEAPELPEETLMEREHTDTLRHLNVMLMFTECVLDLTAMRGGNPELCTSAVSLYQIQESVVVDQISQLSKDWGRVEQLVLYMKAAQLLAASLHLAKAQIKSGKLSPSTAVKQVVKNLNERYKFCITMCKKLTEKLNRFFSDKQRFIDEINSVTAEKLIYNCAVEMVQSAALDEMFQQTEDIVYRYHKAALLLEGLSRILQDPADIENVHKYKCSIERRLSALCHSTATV
Kind of experiment: Inhibition of human ULK2 at 18.6 nM by HotSpot assay relative to control.

Experiment [8] deals with T3, Serine/threonine-protein kinase haspin (Homo sapiens) (UniProt Q8TF76).
T3 sequence (whole entry): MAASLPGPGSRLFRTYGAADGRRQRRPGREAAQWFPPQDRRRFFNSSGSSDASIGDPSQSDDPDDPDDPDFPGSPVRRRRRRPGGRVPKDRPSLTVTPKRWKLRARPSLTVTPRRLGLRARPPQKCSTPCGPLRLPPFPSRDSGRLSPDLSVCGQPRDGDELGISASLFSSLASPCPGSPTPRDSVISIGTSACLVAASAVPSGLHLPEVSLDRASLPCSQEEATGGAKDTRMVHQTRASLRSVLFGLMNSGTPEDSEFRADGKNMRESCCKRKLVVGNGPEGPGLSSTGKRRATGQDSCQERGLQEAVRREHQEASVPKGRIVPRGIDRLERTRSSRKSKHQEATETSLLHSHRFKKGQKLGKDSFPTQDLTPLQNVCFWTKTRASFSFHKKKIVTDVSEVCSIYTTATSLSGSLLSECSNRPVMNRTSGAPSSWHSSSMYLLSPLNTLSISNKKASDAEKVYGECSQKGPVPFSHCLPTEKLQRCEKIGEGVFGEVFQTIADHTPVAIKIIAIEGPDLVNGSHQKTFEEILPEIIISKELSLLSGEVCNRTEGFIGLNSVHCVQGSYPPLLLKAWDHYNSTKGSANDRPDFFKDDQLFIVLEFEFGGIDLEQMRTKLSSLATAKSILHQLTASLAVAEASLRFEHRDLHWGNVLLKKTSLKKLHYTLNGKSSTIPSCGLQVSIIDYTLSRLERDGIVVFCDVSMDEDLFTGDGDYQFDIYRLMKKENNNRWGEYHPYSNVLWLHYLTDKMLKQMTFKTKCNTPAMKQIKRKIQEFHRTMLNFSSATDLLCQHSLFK
As to the kind of experiment: Inhibition of human Haspin at 1.82 nM by HotSpot assay relative to control.

Experiment [9] addresses Ephrin type-A receptor 4 (Homo sapiens) (UniProt P54764). As to the kind of experiment: Inhibition of human EPHA4 at 1.82 nM by HotSpot assay relative to control.
Experiment [10] concerns the target TGF-beta receptor type-2 (Homo sapiens) (UniProt P37173). Kind of experiment: Inhibition of human TGFBR2 at 1.82 nM by HotSpot assay relative to control.
Experiment [11] addresses CDK9/Cyclin K (Homo sapiens) (UniProt P50750+O75909). Kind of experiment: Inhibition of human CDK9/cyclin K at 1.82 nM by HotSpot assay relative to control. In kind it is protein-complex assay.
The target of experiment [12] is Serine/threonine-protein kinase 10 (Homo sapiens) (UniProt O94804). As to the kind of experiment: Inhibition of human LOK at 1.82 nM by HotSpot assay relative to control.
Sequence of Serine/threonine-protein kinase 10 (Homo sapiens) (O94804 whole entry, looked up): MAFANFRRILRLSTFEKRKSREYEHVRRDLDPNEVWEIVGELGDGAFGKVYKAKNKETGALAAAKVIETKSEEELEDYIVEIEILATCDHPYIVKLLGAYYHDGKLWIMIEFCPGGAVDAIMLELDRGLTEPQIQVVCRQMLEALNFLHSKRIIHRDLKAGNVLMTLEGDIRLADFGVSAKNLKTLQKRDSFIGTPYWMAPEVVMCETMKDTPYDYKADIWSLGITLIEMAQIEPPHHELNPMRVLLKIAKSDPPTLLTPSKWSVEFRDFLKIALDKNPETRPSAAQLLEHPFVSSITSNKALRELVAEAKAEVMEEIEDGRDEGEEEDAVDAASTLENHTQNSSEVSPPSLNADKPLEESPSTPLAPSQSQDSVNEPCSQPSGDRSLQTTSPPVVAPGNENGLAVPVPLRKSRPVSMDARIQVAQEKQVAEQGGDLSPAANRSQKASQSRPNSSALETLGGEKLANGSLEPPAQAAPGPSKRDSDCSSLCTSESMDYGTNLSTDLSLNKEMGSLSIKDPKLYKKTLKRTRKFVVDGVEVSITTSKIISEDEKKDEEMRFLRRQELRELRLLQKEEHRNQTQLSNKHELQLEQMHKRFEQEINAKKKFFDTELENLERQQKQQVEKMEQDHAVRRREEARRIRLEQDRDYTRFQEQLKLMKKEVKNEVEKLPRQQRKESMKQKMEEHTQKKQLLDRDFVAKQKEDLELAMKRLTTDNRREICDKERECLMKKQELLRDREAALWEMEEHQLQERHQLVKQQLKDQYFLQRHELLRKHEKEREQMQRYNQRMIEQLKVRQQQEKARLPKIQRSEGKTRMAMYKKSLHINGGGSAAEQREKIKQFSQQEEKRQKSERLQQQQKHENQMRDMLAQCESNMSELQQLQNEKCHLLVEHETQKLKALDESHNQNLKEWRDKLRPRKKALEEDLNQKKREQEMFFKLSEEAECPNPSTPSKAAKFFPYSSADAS
Experiment [13] addresses Ribosomal protein S6 kinase alpha-4 (Homo sapiens) (UniProt O75676). Kind of experiment: Inhibition of human RPS6KA4 at 1.82 nM by HotSpot assay relative to control.

Sequence of TGF-beta receptor type-2 (Homo sapiens) (P37173 whole entry): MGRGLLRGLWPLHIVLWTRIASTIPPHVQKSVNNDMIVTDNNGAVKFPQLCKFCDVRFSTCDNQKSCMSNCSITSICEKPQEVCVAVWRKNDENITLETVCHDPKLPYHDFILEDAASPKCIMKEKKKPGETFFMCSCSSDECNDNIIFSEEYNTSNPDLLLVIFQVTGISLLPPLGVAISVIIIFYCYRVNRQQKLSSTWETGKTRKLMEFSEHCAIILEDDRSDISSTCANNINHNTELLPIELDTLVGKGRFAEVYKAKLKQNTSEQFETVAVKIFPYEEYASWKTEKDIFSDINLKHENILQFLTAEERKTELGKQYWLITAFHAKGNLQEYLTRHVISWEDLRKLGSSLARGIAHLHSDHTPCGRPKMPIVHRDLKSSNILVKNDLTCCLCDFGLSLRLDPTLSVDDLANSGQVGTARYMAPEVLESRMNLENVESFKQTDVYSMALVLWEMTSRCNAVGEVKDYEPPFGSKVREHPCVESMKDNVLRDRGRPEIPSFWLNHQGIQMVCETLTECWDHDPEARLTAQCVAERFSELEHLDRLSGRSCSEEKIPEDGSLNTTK
Sequence of Casein kinase II subunit alpha' (Homo sapiens) (P19784 whole entry, looked up): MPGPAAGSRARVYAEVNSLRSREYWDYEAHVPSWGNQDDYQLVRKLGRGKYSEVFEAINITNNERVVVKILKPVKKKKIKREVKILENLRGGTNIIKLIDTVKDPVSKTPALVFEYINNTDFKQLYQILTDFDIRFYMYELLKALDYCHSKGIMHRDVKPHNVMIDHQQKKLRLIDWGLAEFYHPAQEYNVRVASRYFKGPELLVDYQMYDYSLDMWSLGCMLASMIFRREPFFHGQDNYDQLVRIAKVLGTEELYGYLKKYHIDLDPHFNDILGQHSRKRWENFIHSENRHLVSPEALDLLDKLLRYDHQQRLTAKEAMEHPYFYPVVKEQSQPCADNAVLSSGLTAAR
Sequence of Ribosomal protein S6 kinase alpha-4 (Homo sapiens) (O75676 whole entry, looked up): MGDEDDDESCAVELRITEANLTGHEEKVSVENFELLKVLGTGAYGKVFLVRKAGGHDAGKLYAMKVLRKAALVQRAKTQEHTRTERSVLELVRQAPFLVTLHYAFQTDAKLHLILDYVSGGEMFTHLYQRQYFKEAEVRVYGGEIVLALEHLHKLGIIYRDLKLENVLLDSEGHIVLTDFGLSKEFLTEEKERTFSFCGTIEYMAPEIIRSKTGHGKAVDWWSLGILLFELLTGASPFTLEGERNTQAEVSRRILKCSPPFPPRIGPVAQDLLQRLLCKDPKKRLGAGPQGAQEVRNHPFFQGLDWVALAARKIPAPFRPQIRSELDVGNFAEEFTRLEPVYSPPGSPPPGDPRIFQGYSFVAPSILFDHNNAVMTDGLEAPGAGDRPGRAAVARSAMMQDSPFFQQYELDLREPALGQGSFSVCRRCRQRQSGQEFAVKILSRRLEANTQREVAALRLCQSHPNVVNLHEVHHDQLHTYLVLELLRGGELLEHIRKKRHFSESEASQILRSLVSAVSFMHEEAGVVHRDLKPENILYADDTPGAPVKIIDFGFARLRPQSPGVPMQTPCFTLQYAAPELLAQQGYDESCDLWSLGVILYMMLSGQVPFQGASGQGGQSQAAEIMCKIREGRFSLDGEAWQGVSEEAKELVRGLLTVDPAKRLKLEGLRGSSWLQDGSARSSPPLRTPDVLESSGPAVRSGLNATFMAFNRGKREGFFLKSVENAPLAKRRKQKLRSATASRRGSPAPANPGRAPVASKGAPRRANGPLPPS
Sequence of Ephrin type-A receptor 4 (Homo sapiens) (P54764 whole entry): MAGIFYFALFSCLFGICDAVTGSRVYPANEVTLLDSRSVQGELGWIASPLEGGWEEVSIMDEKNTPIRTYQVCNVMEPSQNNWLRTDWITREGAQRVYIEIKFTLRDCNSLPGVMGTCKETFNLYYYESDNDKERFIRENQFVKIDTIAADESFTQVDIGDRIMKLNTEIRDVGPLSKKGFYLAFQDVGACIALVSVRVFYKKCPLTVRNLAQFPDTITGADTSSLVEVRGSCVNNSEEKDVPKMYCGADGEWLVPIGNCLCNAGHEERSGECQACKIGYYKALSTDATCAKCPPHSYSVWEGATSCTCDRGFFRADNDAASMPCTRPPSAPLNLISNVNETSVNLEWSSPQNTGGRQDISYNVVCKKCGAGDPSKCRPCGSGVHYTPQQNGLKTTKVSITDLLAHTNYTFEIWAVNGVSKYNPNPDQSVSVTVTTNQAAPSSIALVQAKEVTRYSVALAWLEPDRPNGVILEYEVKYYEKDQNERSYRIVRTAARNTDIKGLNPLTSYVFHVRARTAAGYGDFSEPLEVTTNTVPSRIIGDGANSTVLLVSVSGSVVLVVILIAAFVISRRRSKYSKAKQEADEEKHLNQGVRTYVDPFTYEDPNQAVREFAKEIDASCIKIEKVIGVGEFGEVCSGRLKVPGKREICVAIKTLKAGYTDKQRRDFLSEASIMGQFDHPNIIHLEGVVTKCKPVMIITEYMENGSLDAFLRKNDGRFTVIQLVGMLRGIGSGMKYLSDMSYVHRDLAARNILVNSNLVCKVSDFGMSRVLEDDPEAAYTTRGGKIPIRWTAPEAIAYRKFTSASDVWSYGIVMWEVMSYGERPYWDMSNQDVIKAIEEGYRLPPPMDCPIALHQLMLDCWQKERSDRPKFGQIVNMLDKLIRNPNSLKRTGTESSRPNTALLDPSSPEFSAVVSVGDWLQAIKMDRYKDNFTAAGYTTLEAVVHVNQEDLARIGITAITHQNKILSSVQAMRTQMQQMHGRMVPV

Take `C[C@]1(O)C[C@@H](c2nc(-c3ccc4ccc(-c5ccccc5)nc4c3)c3c(N)nccn32)C1`: the inhibition was -6.12% in [1]; 38.2% in [2]; 2.05% in experiment [3]; -3.7% in experiment [4]; 6.33% in [5]; -0.38% in experiment [6]. Further, the inhibition in [7] came to 2.12%.
For the compound `C[C@@]1(C(=O)Nc2ccc(F)nc2)CCCN1c1nc(Nc2cc(C3CC3)n[nH]2)c2cccn2n1`, the inhibition in [8] is -1.25%; in [9], -4.4%; in experiment [10], 5.94%; in [11] it was 4.72%; in [12] it was 12%; in experiment [13] it was -3.34%.

Usually inhibition stands for the drop in the measured response relative to a control, in per cent.
